Assay results: ChEMBL document CHEMBL1221178, “Allosteric control of an ionotropic glutamate receptor with an optical switch” (Nat Chem Biol, 2006)
The source made the active and inactive calls. The rule behind the calls is not given here.

Legend:
Format in all cases: functional, cell-based
[1] = system: Glutamate receptor ionotropic, kainate 2 (Homo sapiens), Q13002 [L439C]; assay: Agonist activity at MAG conjugated light activated iGluR6 L439C mutant expressed in human HEK293 cells assessed as increase inward currents by whole cell patch clamp method
[2] = system: Glutamate receptor ionotropic, kainate 2 (Homo sapiens), Q13002 [L439C]; assay: Agonist activity at iGluR6 L439C mutant expressed in human HEK293 cells assessed as increase in intracellular Ca2+ levels illuminated at 380 nm wavelength by […] staining based fluorimetric method
[3] = system: Glutamate receptor ionotropic, kainate 2 (Homo sapiens), Q13002 [L439C]; assay: Agonist activity at iGluR6 L439C mutant expressed in human HEK293 cells assessed as increase in intracellular Ca2+ levels illuminated at 500 nm wavelength by […] staining based fluorimetric method

Chain of Glutamate receptor ionotropic, kainate 2 (Homo sapiens), Q13002 [L439C] (Q13002 whole entry L439C): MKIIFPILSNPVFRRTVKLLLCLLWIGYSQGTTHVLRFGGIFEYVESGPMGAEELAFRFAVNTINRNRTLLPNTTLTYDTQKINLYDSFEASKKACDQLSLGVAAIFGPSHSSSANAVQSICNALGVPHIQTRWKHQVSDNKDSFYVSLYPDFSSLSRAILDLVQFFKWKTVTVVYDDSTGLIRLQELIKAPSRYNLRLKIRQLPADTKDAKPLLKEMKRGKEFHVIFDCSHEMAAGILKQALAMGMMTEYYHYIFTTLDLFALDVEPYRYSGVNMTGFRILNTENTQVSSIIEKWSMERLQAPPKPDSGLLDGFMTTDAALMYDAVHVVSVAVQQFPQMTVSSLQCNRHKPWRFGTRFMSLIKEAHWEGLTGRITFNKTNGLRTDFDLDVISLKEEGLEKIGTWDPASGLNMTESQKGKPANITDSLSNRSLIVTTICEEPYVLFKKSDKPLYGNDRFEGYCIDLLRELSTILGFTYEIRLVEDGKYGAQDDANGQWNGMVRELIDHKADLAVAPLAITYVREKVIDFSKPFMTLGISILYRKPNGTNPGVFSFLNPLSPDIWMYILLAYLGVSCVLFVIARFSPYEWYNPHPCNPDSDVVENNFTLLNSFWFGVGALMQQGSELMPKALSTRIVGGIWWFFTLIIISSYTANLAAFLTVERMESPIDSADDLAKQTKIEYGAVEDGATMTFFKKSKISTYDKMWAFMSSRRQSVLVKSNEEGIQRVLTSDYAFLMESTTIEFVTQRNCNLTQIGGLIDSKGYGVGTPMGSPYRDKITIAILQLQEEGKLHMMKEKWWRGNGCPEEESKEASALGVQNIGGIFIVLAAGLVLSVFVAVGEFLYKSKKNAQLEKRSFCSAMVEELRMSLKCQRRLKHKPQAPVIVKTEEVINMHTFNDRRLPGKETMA

| Activity [1] | Activity [2] | Activity [3] | Structure (SMILES) |
| --- | --- | --- | --- |
| Active | – | – | N[C@@H](CCC(=O)O)C(=O)O |
| – | Active | inactive | N[C@@H](C[C@@H](CCCC(=O)NCC(=O)Nc1ccc(/N=N/c2ccc(NC(=O)CN3C(=O)C=CC3=O)cc2)cc1)C(=O)O)C(=O)O |
| Active | – | – | N[C@@H](C[C@@H](CCCC(=O)NCC(=O)Nc1ccccc1)C(=O)O)C(=O)O |
